US12018011B2, “Macrocyclic compounds and compositions, and methods of preparing and using the same” (Kura Oncology, Inc., priority 2021, dated 2024)

The compounds below were run against T1, Recombinant human farnesyl transferase (FTase) (Homo sapiens, UniProt P49356) (assay: FTase fluorescence assay (farnesylation of dansyl-GCVLS peptide)). Settings: recombinant human FTase 2.5 nM, Dansyl-GCVLS 85 nM, FPP 30 nM, 30° C., 50 minutes.
T1 construct: purchased Crelux (Martinsried, Germany)
Assay type: biochemical
Text: T24/83 cell line was purchased from the European Collection of Authenticated Cell Cultures (Salisbury, UK). Recombinant human farnesyl transferase (FTase) and geranylgeranyl transferase type-1 (GGTase) were obtained from Crelux (Martinsried, Germany). Dansyl labelled GCVLS peptide was purchased from Bachem (Torrance, CA), and Dansyl labelled GCVLL peptide was purchased from Bio Synthesis (Lewisville, TX). Farnesyl Pyrophosphate (FPP) and Geranylgeranyl pyrophosphate (GGPP) were purchased from Cayman (Ann Arbor, MI).
Specific biochemical activity of the compounds disclosed herein as FTase inhibitors was determined by measuring the ability of the compounds to block the farnesylation by recombinant FTase of fluorescent (i.e., dansyl-labeled) test substrates derived from the CAAX box of farnesylated proteins, such as the peptide GCVLS.
The IC50 value of the compounds disclosed herein as inhibitors of Ftase and/or GGTase, was determined by measuring the concentration (provided in nM) necessary to achieve inhibition of enzyme activity by 50% (IC50). […] Compounds having a low IC50 value against FTase, for example an IC50 (FTase)<100 nM, such as an IC50 (FTase)<10 nM, are preferred. Compounds having a low IC50 value against FTase and a high IC50 value against GGTase, for example an IC50 (FTase)<100 nM, such as an IC50 (FTase)<10 nM, and an IC50 (GGTase)>100 nM, are potent and selective inhibitors of FTase, and are particularly preferred.
The inhibition activities of the compounds disclosed herein against Ftase and GGTase were measured in the respective fluorescence assays as follows:
For the FTase assay, recombinant human FTase (2.5 nM), Dansyl labelled GCVLS peptide (85 nM), FPP (30 nM) and inhibitor were mixed in assay buffer (50 mM Tris, pH 7.5, 10 mM magnesium chloride, 10 μM zinc chloride, 0.08% CHAPS, 5 mM dithiothreitol) and incubated in a total volume of 20 μL at 30° C. for 50 minutes.
For both the FTase assay and GGTase assay, fluorescence intensity was detected (excitation at 340 nm and emission at 486 nm) using EnVision (PerkinElmer; Waltham, MA), IC50 determinations were performed using a sigmoidal dose-response model with Xlfit software (IDBS, Inc.; Boston, MA), and tipifarnib was used as a positive control. All the assay plates for each assay passed the QC criteria (S/B, Z factor).

SMILES	IC50 [nM]
Cn1cncc1[C@]1(N)c2ccc(C#N)c(c2)OCc2cccc(c2)-c2cc(=O)n(C)c3ccc1cc23 (racemic) [(R)-19, (R)-3-amino-2^1-methyl-3-(1-methyl-1H-imidazol-5-yl)-2^2-oxo-2^1,2^2-dihydro-5-oxa-2(4,6)-quinolina-1,4(1,3)-dibenzenacyclohexaphane-4^4-carbonitrile]	> 100
Cn1cncc1[C@]1(N)c2ccc(Cl)c(c2)OCc2cccc(c2)-c2cc(=O)n(C)c3ccc1cc23 (racemic) [(R)-15, (R)-3-amino-4^4-chloro-2^1-methyl-3-(1-methyl-1H-imidazol-5-yl)-2^1,2^2-dihydro-5-oxa-2(4,6)-quinolina-1,4(1,3)-dibenzenacyclohexaphan-2^2-one]	> 100
[2H]C([2H])([2H])n1c(=O)cc2c3cc(ccc31)[C@](N)(c1cncn1C)c1ccc(C#N)c(c1)CCc1cccc-2c1 (racemic) [(S)-8, (S)-3-amino-2^1-(methyl-d3)-3-(1-methyl-1H-imidazol-5-yl)-22-oxo-2^1,2^2-dihydro-2(4,6)-quinolina-1,4(1,3)-dibenzenacyclohexaphane-4^4-carbonitrile]	> 100
Cn1cncc1[C@]1(N)c2ccc(C#N)c(c2)COc2cccc(c2)-c2cc(OC3COC3)nc3ccc1cc23 [(R)-89, (R)-3-amino-3-(1-methyl-1H-imidazol-5-yl)-2^2-(oxetan-3-yloxy)-6-oxa-2(4,6)-quinolina-1,4(1,3)-dibenzenacyclohexaphane-4^4-carbonitrile]	10 to 100
[2H]C([2H])([2H])n1c(=O)cc2c3cc(ccc31)[C@H](n1ncnc1C)c1ccc(Cl)c(c1)COc1cccc-2c1 [(S)-079, (S)-4^4-chloro-2^1-(methyl-d3)-3-(5-methyl-1H-1,2,4-triazol-1-yl)-2^1,2^2-dihydro-6-oxa-2(4,6)-quinolina-1,4(1,3)-dibenzenacyclohexaphan-2^2-one]	> 100
Cn1cncc1C1(N)c2ccc(C#N)c(c2)COc2cccc(c2)-c2cc(NC3COC3)nc3ccc1cc23 (stereo not drawn) [Compound 68, 3-amino-3-(1-methyl-1H-imidazol-5-yl)-2^2-(oxetan-3-ylamino)-6-oxa-2(4,6)-quinolina-1,4(1,3)-dibenzenacyclohexaphane-4^4-carbonitrile]	10 to 100
Cc1cn([C@@H]2c3ccc(C#N)c(c3)COc3cccc(c3)-c3cc(C#N)nc4ccc2cc34)cn1 [(S)-90, (S)-3-(4-methyl-1H-imidazol-1-yl)-6-oxa-2(4,6)-quinolina-1,4(1,3)-dibenzenacyclohexaphane-2^2,4^4-dicarbonitrile]	10 to 100
Cn1cncc1[C@]1(O)c2ccc(Cl)c(c2)OCc2cccc(c2)-c2cc(=O)n(C)c3ccc1cc23 (racemic) [(R)-14, (R)-4^4-chloro-3-hydroxy-2^1-methyl-3-(1-methyl-1H-imidazol-5-yl)-2^1,2^2-dihydro-5-oxa-2(4,6)-quinolina-1,4(1,3)-dibenzenacyclohexaphan-2^2-one]	> 100
Cn1cncc1[C@]1(O)c2ccc(C#N)c(c2)CCc2cccc(c2)-c2cc(=O)n(C)c3ccc1cc23 (racemic) [(S)-6, (S)-3-hydroxy-2^1-methyl-3-(1-methyl-1H-imidazol-5-yl)-2^2-oxo-2^1,2^2-dihydro-2(4,6)-quinolina-1,4(1,3)-dibenzenacyclohexaphane-4^4-carbonitrile]	> 100
Cn1cncc1[C@]1(N)c2ccc(Cl)c(c2)CCc2cccc(c2)-c2cc(=O)n(C)c3ccc1cc23 (racemic) [(R)-4, (R)-3-amino-4^4-chloro-2^1-methyl-3-(1-methyl-1H-imidazol-5-yl)-2^1,2^2-dihydro-2(4,6)-quinolina-1,4(1,3)-dibenzenacyclohexaphan-2^2-one]	> 100
Cn1cnnc1[C@]1(N)c2ccc(Cl)c(c2)COc2cccc(c2)-c2cc(=O)n(C)c3ccc1cc23 (racemic) [(R)-51, (R)-3-amino-4^4-chloro-2^1-methyl-3-(4-methyl-4H-1,2,4-triazol-3-yl)-2^1,2^2-dihydro-6-oxa-2(4,6)-quinolina-1,4(1,3)-dibenzenacyclohexaphan-2^2-one]	> 100
Cn1cncc1[C@]1(N)c2ccc(C#N)c(c2)OCc2cccc(c2)-c2cc(C#N)nc3ccc1cc23 (racemic) [(R)-21, (R)-3-amino-3-(1-methyl-1H-imidazol-5-yl)-5-oxa-2(4,6)-quinolina-1,4(1,3)-dibenzenacyclohexaphane-2^2,4^4-dicarbonitrile]	> 100
[2H]C([2H])([2H])n1c(=O)cc2c3cc(ccc31)[C@](N)(c1cncn1C)c1ccc(Cl)c(c1)COc1cccc-2c1 (racemic) [(R)-47, (R)-3-amino-4^4-chloro-2^1-(methyl-d3)-3-(1-methyl-1H-imidazol-5-yl)-2^1,2^2-dihydro-6-oxa-2(4,6)-quinolina-1,4(1,3)-dibenzenacyclohexaphan-2^2-one]	> 100
COc1cc2c3cc(ccc3n1)C(O)(c1cncn1C)c1ccc(Cl)c(c1)CCOc1cccc-2c1 (stereo not drawn) [Compound 64, 4^4-chloro-2^2-methoxy-3-(1-methyl-1H-imidazol-5-yl)-7-oxa-2(4,6)-quinolina-1,4(1,3)-dibenzenacycloheptaphan-3-ol]	> 100

Further lines, results first:

IC50 [nM]	SMILES
10 to 100	COc1cc2c3cc(ccc3n1)C(O)(c1cncn1C)c1ccc(C#N)c(c1)OCc1cccc-2c1 (stereo not drawn) [Compound 16, 3-hydroxy-2^2-methoxy-3-(1-methyl-1H-imidazol-5-yl)-5-oxa-2(4,6)-quinolina-1,4(1,3)-dibenzenacyclohexaphane-4^4-carbonitrile]
10 to 100	[2H]C([2H])([2H])n1c(=O)cc2c3cc(ccc31)[C@H](n1cncc1C)c1ccc(Cl)c(c1)COc1cccc-2c1 [(S)-76, (S)-4^4-chloro-2^1-(methyl-d3)-3-(5-methyl-1H-imidazol-1-yl)-2^1,2^2-dihydro-6-oxa-2(4,6)-quinolina-1,4(1,3)-dibenzenacyclohexaphan-2^2-one]
10 to 100	[2H]C([2H])([2H])n1c(=O)cc2c3cc(ccc31)[C@@H](n1cnc(C)n1)c1ccc(Cl)c(c1)COc1cccc-2c1 [(R)-080, (R)-4^4-chloro-2^1-(methyl-d3)-3-(3-methyl-1H-1,2,4-triazol-1-yl)-2^1,2^2-dihydro-6-oxa-2(4,6)-quinolina-1,4(1,3)-dibenzenacyclohexaphan-2^2-one]
≤ 10	Cn1cncc1[C@@]1(N)c2ccc(C#N)c(c2)COc2cccc(c2)-c2cc(N3CCOCC3)nc3ccc1cc23 [(S)-66, (S)-3-amino-3-(1-methyl-1H-imidazol-5-yl)-2^2-morpholino-6-oxa-2(4,6)-quinolina-1,4(1,3)-dibenzenacyclohexaphane-4^4-carbonitrile]
10 to 100	Cn1cncc1C1(N)c2ccc(C#N)c(c2)COc2cccc(c2)-c2cc(N3CCNCC3)nc3ccc1cc23 (stereo not drawn) [Compound 67, 3-amino-3-(1-methyl-1H-imidazol-5-yl)-2^2-(piperazin-1-yl)-6-oxa-2(4,6)-quinolina-1,4(1,3)-dibenzenacyclohexaphane-4^4-carbonitrile]
≤ 10	COc1cc2c3cc(ccc3n1)C(O)(c1cncn1C)c1ccc(C#N)c(c1)CCc1cccc-2c1 (stereo not drawn) [Compound 5, 3-hydroxy-2^2-methoxy-3-(1-methyl-1H-imidazol-5-yl)-2(4,6)-quinolina-1,4(1,3)-dibenzenacyclohexaphane-4^4-carbonitrile]
≤ 10	Cn1cncc1C1(O)c2ccc(C#N)c(c2)COc2cccc(c2)-c2cc(=O)[nH]c3ccc1cc23 (stereo not drawn) [Compound 54, 3-hydroxy-3-(1-methyl-1H-imidazol-5-yl)-2^2-oxo-2^1,2^2-dihydro-6-oxa-2(4,6)-quinolina-1,4(1,3)-dibenzenacyclohexaphane-4^4-carbonitrile]
≤ 10	Cn1cncc1[C@]1(N)c2ccc(C#N)c(c2)COc2cccc(c2)-c2cc(N3CCOCC3)nc3ccc1cc23 (racemic) [(R)-66, (R)-3-amino-3-(1-methyl-1H-imidazol-5-yl)-2^2-morpholino-6-oxa-2(4,6)-quinolina-1,4(1,3)-dibenzenacyclohexaphane-4^4-carbonitrile]
≤ 10	CNC1(c2nncn2C)c2ccc(Cl)c(c2)COc2cccc(c2)-c2cc(=O)n(C)c3ccc1cc23 (stereo not drawn) [Compound 50, 4^4-chloro-2^1-methyl-3-(4-methyl-4H-1,2,4-triazol-3-yl)-3-(methylamino)-2^1,2^2-dihydro-6-oxa-2(4,6)-quinolina-1,4(1,3)-dibenzenacyclohexaphan-2^2-one]
≤ 10	Cn1cncc1[C@@]1(N)c2ccc(C#N)c(c2)COc2cccc(c2)-c2nccc3ccc1cc23 [(S)-86, (S)-3-amino-3-(1-methyl-1H-imidazol-5-yl)-6-oxa-2(1,7)-isoquinolina-1,4(1,3)-dibenzenacyclohexaphane-4^4-carbonitrile]
